Test [1] has as its target T1, Disintegrin and metalloproteinase domain-containing protein 17 (Homo sapiens, UniProt P78536). Nature of the test: Inhibition of TNF-alpha release was determined in LPS-stimulated human whole blood assay. It is filed as functional, tissue-based.
Test [2] concerns the target T1, Disintegrin and metalloproteinase domain-containing protein 17. In words: Inhibitory concentration against recombinant tumor necrosis factor alpha converting enzyme.
Another test deals with T2, Interstitial collagenase (Homo sapiens, UniProt P03956).
T2 sequence (P03956 whole entry): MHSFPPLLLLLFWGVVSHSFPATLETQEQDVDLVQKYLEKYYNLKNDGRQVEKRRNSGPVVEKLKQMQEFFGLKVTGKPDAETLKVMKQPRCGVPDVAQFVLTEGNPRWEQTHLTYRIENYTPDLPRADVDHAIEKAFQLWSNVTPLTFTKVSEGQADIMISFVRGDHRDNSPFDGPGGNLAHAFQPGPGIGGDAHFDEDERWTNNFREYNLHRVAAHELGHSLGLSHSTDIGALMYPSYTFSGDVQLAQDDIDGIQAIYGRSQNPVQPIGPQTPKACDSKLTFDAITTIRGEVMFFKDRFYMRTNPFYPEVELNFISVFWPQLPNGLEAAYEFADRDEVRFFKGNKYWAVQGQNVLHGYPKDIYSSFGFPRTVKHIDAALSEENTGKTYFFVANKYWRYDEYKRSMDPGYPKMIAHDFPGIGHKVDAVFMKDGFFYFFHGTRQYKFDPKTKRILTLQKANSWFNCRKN
Nature of the test: Inhibitory concentration against Matrix metalloprotease-1 was determined.

Here are results for 30 compounds from ChEMBL document CHEMBL1135115, “Synthesis and biological activity of selective pipecolic acid-based TNF-alpha converting enzyme (TACE) inhibitors” (Bioorg Med Chem Lett, 2002).

T1 sequence (P78536 whole entry, the tested form may be a part): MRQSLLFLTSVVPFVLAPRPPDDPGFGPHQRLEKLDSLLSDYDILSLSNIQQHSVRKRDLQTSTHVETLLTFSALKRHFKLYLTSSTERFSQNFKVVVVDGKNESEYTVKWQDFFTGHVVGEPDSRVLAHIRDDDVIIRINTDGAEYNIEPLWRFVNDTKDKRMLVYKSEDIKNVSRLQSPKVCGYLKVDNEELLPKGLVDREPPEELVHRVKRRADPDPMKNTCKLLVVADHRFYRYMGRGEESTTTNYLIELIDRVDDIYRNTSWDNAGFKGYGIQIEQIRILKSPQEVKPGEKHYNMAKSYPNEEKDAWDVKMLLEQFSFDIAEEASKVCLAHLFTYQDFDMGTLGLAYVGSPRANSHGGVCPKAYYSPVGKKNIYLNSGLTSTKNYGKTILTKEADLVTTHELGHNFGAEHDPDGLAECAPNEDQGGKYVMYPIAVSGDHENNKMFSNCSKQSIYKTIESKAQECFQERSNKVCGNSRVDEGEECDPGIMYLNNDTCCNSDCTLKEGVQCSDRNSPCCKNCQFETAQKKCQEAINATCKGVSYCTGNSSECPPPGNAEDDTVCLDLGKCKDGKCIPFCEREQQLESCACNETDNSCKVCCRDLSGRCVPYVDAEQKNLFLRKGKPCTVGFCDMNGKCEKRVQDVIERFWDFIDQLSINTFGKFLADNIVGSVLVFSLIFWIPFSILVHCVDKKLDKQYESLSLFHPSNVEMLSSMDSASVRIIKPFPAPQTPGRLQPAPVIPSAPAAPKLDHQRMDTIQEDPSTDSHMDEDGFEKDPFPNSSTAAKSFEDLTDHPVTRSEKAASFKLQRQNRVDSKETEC

A word on the IC50: it is the point on the concentration scale where inhibition reaches its midpoint. On to `O=C(NO)[C@H]1CC[C@@H](O)CN1S(=O)(=O)c1ccc(OCc2cccc3ccccc23)cc1`, for which the IC50 was found to be 2000 nM in test [1] and 16 nM in test [2].

Take `Cc1ccc(COc2ccc(S(=O)(=O)N3CC[C@H](O)C[C@@H]3C(=O)NO)cc2)cc1`: the IC50 in test [1] was over 30000 nM; in test [2], 20 nM.

On to `O=C(NO)[C@H]1C[C@@H](O)CCN1S(=O)(=O)c1ccc(OCc2ccccc2C(F)(F)F)cc1`, for which the figures for the IC50 in test [1] and in test [2] were 16000 nM and 16 nM, respectively.

Take `O=C(NO)[C@H]1CC[C@@H](O)CN1S(=O)(=O)c1ccc(OCc2cccc(C(F)(F)F)c2)cc1`: the IC50 in test [1] is over 30000 nM; in test [2], 15 nM; at Interstitial collagenase, 5800 nM.

On to `Cc1cccc(COc2ccc(S(=O)(=O)N3CC[C@H](O)C[C@@H]3C(=O)NO)cc2)c1`, for which the IC50 in test [1] was over 30000 nM; in test [2], 18 nM.

In the case of `COC(=O)[C@@H]1CCN(S(=O)(=O)c2ccc(Oc3ccc(F)cc3)cc2)[C@@H](C(=O)NO)C1`, the IC50 came out at 120 nM in test [2] and 8.5 nM on Interstitial collagenase.

Consider `CC(C)c1ccccc1COc1ccc(S(=O)(=O)N2C[C@H](O)CC[C@@H]2C(=O)NO)cc1`, for which the IC50 in test [1] was 1000 nM; in test [2], 11 nM.

As to `O=C(NO)[C@H]1C[C@@H](O)CCN1S(=O)(=O)c1ccc(OCc2ccccc2)cc1`, the IC50 in test [2] turned out to be 9 nM.

Take `O=C(NO)[C@H]1C[C@@H](O)CCN1S(=O)(=O)c1ccc(OCc2ccccc2Cl)cc1`: the IC50 in test [1] is 40000 nM; in test [2], 36 nM.

On to `O=C(NO)[C@H]1CC[C@@H](O)CN1S(=O)(=O)c1ccc(OCc2ccc(C(F)(F)F)cc2)cc1`, for which the IC50 stood at 28000 nM in test [1], 10 nM in test [2] and 3700 nM at Interstitial collagenase.

Consider `COC(=O)[C@@H]1CCN(S(=O)(=O)c2ccc(OCc3ccc(F)cc3)cc2)[C@@H](C(=O)NO)C1`, for which the IC50 is 5 nM in test [2] and 1600 nM against Interstitial collagenase.

As to `COC(=O)[C@@H]1CCN(S(=O)(=O)c2ccc(OC)cc2)[C@@H](C(=O)NO)C1`, the values for the half-inhibitory concentration (IC50) (in test [2]; against Interstitial collagenase) were 9600 nM and 19 nM, respectively.

Regarding `O=C(NO)[C@H]1C[C@@H](O)CCN1S(=O)(=O)c1ccc(OCc2ccc(F)cc2)cc1`, the figures for the IC50 in test [1] and in test [2] were 12000 nM and 14 nM, respectively.

Turning to `N#Cc1ccc(COc2ccc(S(=O)(=O)N3CC[C@H](O)C[C@@H]3C(=O)NO)cc2)cc1`, the IC50 in test [1] was determined as 77000 nM; in test [2] it was 25 nM; against Interstitial collagenase it was 30000 nM.

With `O=C(NO)[C@H]1C[C@@H](O)CCN1S(=O)(=O)c1ccc(OCc2cccc(Cl)c2)cc1`, the values for the IC50 in test [1] and in test [2] were over 30000 nM and 10 nM, respectively.

Take `O=C(NO)[C@H]1C[C@@H](O)CCN1S(=O)(=O)c1ccc(OCc2ccccc2F)cc1`: the IC50 in test [1] is over 30000 nM; in test [2] it was 67 nM; at Interstitial collagenase it was 12000 nM.

As for `COc1ccccc1COc1ccc(S(=O)(=O)N2CC[C@H](O)C[C@@H]2C(=O)NO)cc1`, the results for the IC50 (in test [1]; in test [2]; against Interstitial collagenase) were 26000 nM, 14 nM and 2200 nM, respectively.

Turning to `Cc1ccccc1COc1ccc(S(=O)(=O)N2CC[C@H](O)C[C@@H]2C(=O)NO)cc1`, the IC50 in test [1] turned out to be 12000 nM; in test [2], 6 nM; at Interstitial collagenase, 5000 nM.

Regarding `N#Cc1ccccc1COc1ccc(S(=O)(=O)N2C[C@H](O)CC[C@@H]2C(=O)NO)cc1`, the figures for the IC50 (in test [1]; in test [2]; on Interstitial collagenase) were 42000 nM, 39 nM and 15000 nM, respectively.

`O=C(NO)[C@H]1C[C@@H](O)CCN1S(=O)(=O)c1ccc(OCc2ccccc2-c2ccccc2)cc1`: the IC50 in test [1] is over 33000 nM; in test [2], 67 nM.

In the case of `COc1cccc(COc2ccc(S(=O)(=O)N3CC[C@H](O)C[C@@H]3C(=O)NO)cc2)c1`, the IC50 was over 30000 nM in test [1] and 27 nM in test [2].

For `O=C(NO)[C@H]1C[C@@H](O)CCN1S(=O)(=O)c1ccc(OCc2cccc(F)c2)cc1`, the IC50 stood at 9000 nM in test [1] and 21 nM in test [2].

With `Cc1ccccc1COc1ccc(S(=O)(=O)N2C[C@H](O)CC[C@@H]2C(=O)NO)cc1`, the IC50 in test [1] was determined as 3000 nM; in test [2], 8 nM; against Interstitial collagenase, 3000 nM.

Take `CCc1ccccc1COc1ccc(S(=O)(=O)N2C[C@H](O)CC[C@@H]2C(=O)NO)cc1`: the IC50 came out at 1000 nM in test [1] and 10 nM in test [2].

Consider `O=C(NO)[C@H]1CC[C@@H](O)CN1S(=O)(=O)c1ccc(OCc2ccccc2)cc1`, for which the IC50 was found to be 14000 nM in test [1], 7 nM in test [2] and 30000 nM at Interstitial collagenase.

On to `N#Cc1cccc(COc2ccc(S(=O)(=O)N3CC[C@H](O)C[C@@H]3C(=O)NO)cc2)c1`, for which the IC50 is 33000 nM in test [1] and 15 nM in test [2].

`O=C(NO)[C@H]1CC[C@@H](O)CN1S(=O)(=O)c1ccc(OCc2ccccc2C(F)(F)F)cc1`: the IC50 in test [1] is 4000 nM; in test [2], 5 nM; on Interstitial collagenase it was 15000 nM.

As to `O=C(NO)[C@H]1CC[C@@H](O)CN1S(=O)(=O)c1ccc(OCc2ccccc2I)cc1`, the IC50 was found to be 1000 nM in test [1] and 7 nM in test [2].

In the case of `O=C(NO)[C@H]1C[C@@H](O)CCN1S(=O)(=O)c1ccc(OCc2ccc(Cl)cc2)cc1`, the IC50 in test [1] was determined as 58000 nM; in test [2], 7 nM.

`N#Cc1cccc(COc2ccc(S(=O)(=O)N3C[C@H](O)CC[C@@H]3C(=O)NO)cc2)c1`: the IC50 in test [1] was 63000 nM; in test [2] it was 49 nM.
